Results taken from patent publication US20260285850A1, “SUBSTITUTED OXAZOLIDINONES AND IMIDAZOLINONES AS HERBICIDES” (FMC CORPORATION, priority 2023, published 2026).

How the values were obtained:
Format in all cases: in vivo
[1] = system: oat, wild (wild oat, Avena fatua); experiment: Test A postemergence application, visual injury rating 0-100; settings: 10 days
Summary of the method: (§1)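 Scale 0–100 (no effect to complete control), visual, versus untreated controls, read 10 days after application. Application: preemergence directed spray onto seeded loam–sand soil, or postemergence to young plants; formulation in non-phytotoxic solvent with surfactant.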

[2] = system: galium (catchweed bedstraw, Galium aparine); experiment: as above; settings: 10 days
Summary of the method: as §1

[3] = system: blackgrass (Alopecurus myosuroides); experiment: as above; settings: 10 days
Summary of the method: as §1

[4] = system: palmer (palmer amaranth, palmer pigweed, Amaranthus palmeri); experiment: as above; settings: 10 days
Summary of the method: as §1

soybean (Glycine max) [5] = experiment: as above; settings: 10 days
Summary of the method: as §1

[6] = system: ryegrass, Italian (italian ryegrass, Lolium multiflorum); experiment: as above; settings: 10 days
Summary of the method: as §1

kochia (Bassia scoparia) [7] = experiment: as above; settings: 10 days
Summary of the method: as §1

[8] = system: barnyardgrass (Echinochloa crus-galli); experiment: as above; settings: 10 days
Summary of the method: as §1

[9] = system: wheat (Triticum aestivum); experiment: as above; settings: 10 days
Summary of the method: as §1

[10] = system: green foxtail (Setaria viridis); experiment: as above; settings: 10 days
Summary of the method: as §1

[11] = system: horseweed (Erigeron canadensis); experiment: as above; settings: 10 days
Summary of the method: as §1

[12] = system: ragweed (common ragweed, Ambrosia artemisiifolia); experiment: as above; settings: 10 days
Summary of the method: as §1

corn (Zea mays) [13] = experiment: as above; settings: 10 days
Summary of the method: as §1

[14] = system: oat, wild (wild oat, Avena fatua); experiment: Test A preemergence soil spray, visual injury rating 0-100; settings: 10 days, 0 = no effect, 100 = complete control
Summary of the method: as §1

[15] = system: blackgrass (Alopecurus myosuroides); experiment: as above; settings: 10 days, 0 = no effect, 100 = complete control
Summary of the method: as §1

[16] = system: palmer (palmer amaranth, palmer pigweed, Amaranthus palmeri); experiment: as above; settings: 10 days, 0 = no effect, 100 = complete control
Summary of the method: as §1

soybean (Glycine max) [17] = experiment: as above; settings: 10 days, 0 = no effect, 100 = complete control
Summary of the method: as §1

[18] = system: ryegrass, Italian (italian ryegrass, Lolium multiflorum); experiment: as above; settings: 10 days, 0 = no effect, 100 = complete control
Summary of the method: as §1

kochia (Bassia scoparia) [19] = experiment: as above; settings: 10 days, 0 = no effect, 100 = complete control
Summary of the method: as §1

[20] = system: barnyardgrass (Echinochloa crus-galli); experiment: as above; settings: 10 days, 0 = no effect, 100 = complete control
Summary of the method: as §1

[21] = system: wheat (Triticum aestivum); experiment: as above; settings: 10 days, 0 = no effect, 100 = complete control
Summary of the method: as §1

[22] = system: green foxtail (Setaria viridis); experiment: as above; settings: 10 days, 0 = no effect, 100 = complete control
Summary of the method: as §1

[23] = system: ragweed (common ragweed, Ambrosia artemisiifolia); experiment: as above; settings: 10 days, 0 = no effect, 100 = complete control
Summary of the method: as §1

corn (Zea mays) [24] = experiment: as above; settings: 10 days, 0 = no effect, 100 = complete control
Summary of the method: as §1

[25] = system: sedge, umbrella (small-flower umbrella sedge, Cyperus difformis); experiment: Test B flooded paddy test, visual plant response rating 0-100; settings: 250 g ai/ha, Flood, applied to paddy water, evaluated after 13 days
Summary of the method: (§2)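 Treatment occurs at the 2-leaf stage by adding compound to floodwater standing 3 cm above the soil, a level kept for the whole test. Plants stay in the greenhouse 13 days before visual comparison with controls.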

[26] = system: ducksalad (Heteranthera limosa); experiment: as above; settings: 250 g ai/ha, Flood, applied to paddy water, evaluated after 13 days
Summary of the method: as §2

rice (Oryza sativa) = experiment: as above; settings: 250 g ai/ha, Flood, applied to paddy water, evaluated after 13 days
Summary of the method: as §2

[27] = system: barnyardgrass (Echinochloa crusgalli); experiment: as above; settings: 250 g ai/ha, Flood, applied to paddy water, evaluated after 13 days
Summary of the method: as §2

[28] = 31 g ai/ha, postemergence, 0 = no effect, 100 = complete control
[29] = Postemergence, 125 g ai/ha, 0 is no effect, 100 is complete control

In the case of `CC1(C(=O)NC2CC=C(C(=O)OCC(F)(F)F)C2)CN(c2cc(F)cc(F)c2)C(=O)O1` (stereo not shown) [Compound 1], the “Oat, Wild plant response rating (0-100)” value [1, 28] is reported as 90, the “Oat, Wild plant response rating (0 to 100 scale)” value [1, 29] is reported as 100 and the “Galium plant response rating (0-100)” value [2, 28] is reported as 90. For the same compound, the “Galium plant response rating (0 to 100 scale)” value [2, 29] was 90, the “Blackgrass plant response rating (0-100)” value [3, 28] was 90 and the “Blackgrass plant response rating (0 to 100 scale)” value [3, 29] was 100. The “Amaranth, Palmer plant response rating (0-100)” value [4, 28] was 90, the “Amaranth, Palmer / Pigweed, Palmer plant response rating (0 to 100 scale)” value [4, 29] was 90 and the “Soybean plant response rating (0-100)” value (soybean (Glycine max) [5]; [28]) was 80. The “Soybean plant response rating (0 to 100 scale)” value (soybean (Glycine max) [5]; [29]) was 90, the “Ryegrass, Italian plant response rating (0-100)” value [6, 28] was 80 and the “Ryegrass, Italian plant response rating (0 to 100 scale)” value [6, 29] was 80. For the same compound, the “Kochia plant response rating (0-100)” value (kochia (Bassia scoparia) [7]; [28]) was 70, the “Kochia plant response rating (0 to 100 scale)” value (kochia (Bassia scoparia) [7]; [29]) was 90 and the “Barnyardgrass plant response rating (0-100)” value [8, 28] was 100. For the same compound, the “Barnyardgrass plant response rating (0 to 100 scale)” value [8, 29] was 100, the “Wheat plant response rating (0-100)” value [9, 28] was 90 and the “Wheat plant response rating (0 to 100 scale)” value [9, 29] was 90. The “Foxtail, Green plant response rating (0-100)” value [10, 28] was 90, the “Foxtail, Green plant response rating (0 to 100 scale)” value [10, 29] was 90 and the “Horseweed plant response rating (0-100)” value [11, 28] was 70. The “Horseweed plant response rating (0 to 100 scale)” value [11, 29] was 80, the “Ragweed plant response rating (0-100)” value [12, 28] was 60 and the “Ragweed plant response rating (0 to 100 scale)” value [12, 29] was 70. The “Corn plant response rating (0-100)” value (corn (Zea mays) [13]; [28]) was 100, the “Corn plant response rating (0 to 100 scale)” value (corn (Zea mays) [13]; [29]) was 100 and the “Oat, Wild plant response rating (0-100)” value ([14]; 31 g ai/ha) was 60. For the same compound, the “Oat, Wild plant response rating (0 to 100 scale)” value ([14]; 125 g ai/ha) was 80, the “Blackgrass plant response rating (0-100)” value ([15]; 31 g ai/ha) was 60 and the “Blackgrass plant response rating (0 to 100 scale)” value ([15]; 125 g ai/ha) was 70. For the same compound, the “Amaranth, Palmer plant response rating (0-100)” value ([16]; 31 g ai/ha) was 90, the “Amaranth, Palmer plant response rating (0 to 100 scale)” value ([16]; 125 g ai/ha) was 100 and the “Soybean plant response rating (0-100)” value (soybean (Glycine max) [17]; 31 g ai/ha) was 70. For the same compound, the “Soybean plant response rating (0 to 100 scale)” value (soybean (Glycine max) [17]; 125 g ai/ha) was 90, the “Ryegrass, Italian plant response rating (0-100)” value ([18]; 31 g ai/ha) was 80 and the “Ryegrass, Italian plant response rating (0 to 100 scale)” value ([18]; 125 g ai/ha) was 90. For the same compound, the “Kochia plant response rating (0-100)” value (kochia (Bassia scoparia) [19]; 31 g ai/ha) was 50, the “Kochia plant response rating (0 to 100 scale)” value (kochia (Bassia scoparia) [19]; 125 g ai/ha) was 100 and the “Barnyardgrass plant response rating (0-100)” value ([20]; 31 g ai/ha) was 90. For the same compound, the “Barnyardgrass plant response rating (0 to 100 scale)” value ([20]; 125 g ai/ha) was 100, the “Wheat plant response rating (0-100)” value ([21]; 31 g ai/ha) was 90 and the “Wheat plant response rating (0 to 100 scale)” value ([21]; 125 g ai/ha) was 100. For the same compound, the “Foxtail, Green plant response rating (0-100)” value ([22]; 31 g ai/ha) was 100, the “Foxtail, Green plant response rating (0 to 100 scale)” value ([22]; 125 g ai/ha) was 100 and the “Ragweed plant response rating (0-100)” value ([23]; 31 g ai/ha) was 20. For the same compound, the “Ragweed plant response rating (0 to 100 scale)” value ([23]; 125 g ai/ha) was 90, the “Corn plant response rating (0-100)” value (corn (Zea mays) [24]; 31 g ai/ha) was 60 and the “Corn plant response rating (0 to 100 scale)” value (corn (Zea mays) [24]; 125 g ai/ha) was 90. The “Plant response rating, Sedge, Umbrella (0 to 100 scale, 0 is no effect and 100 is complete control)” value [25] was 95, the “Plant response rating, Ducksalad (0 to 100 scale, 0 is no effect and 100 is complete control)” value [26] was 60 and the “Plant response rating, Rice (0 to 100 scale, 0 is no effect and 100 is complete control)” value (rice (Oryza sativa)) was 80. The “Plant response rating, Barnyardgrass (0 to 100 scale, 0 is no effect and 100 is complete control)” value [27] was 95.
